Like-named read-outs stand apart in the source and are kept apart here.
Columns and labels:
[1] = target: T1, CYP2C8 (Homo sapiens, UniProt P10632); test: Time-dependent inhibition of CYP2C8 in human liver microsomes; assay type: in vitro ADME; conditions: for (% Activity NADPH T0)/(% Activity NADPH T30): fold change; for activity at 30 min, 25 µM / activity at 0 min, 25 µM / activity at 30 min, 50 µM / activity at 0 min, 50 µM: pooled human liver microsomes, human liver microsomes; for activity at 30 min, 25 µM / activity at 30 min, 50 µM: after 30 minutes incubation, read-out: % Activity NADPH T30; for activity at 0 min, 25 µM / activity at 0 min, 50 µM: time zero, read-out: % Activity NADPH T0
T1 construct: Pooled human microsomes and selective CYP probe substrates were used; from tissue; host or cells: pooled human liver microsomes
T1 sequence (P10632 1-490): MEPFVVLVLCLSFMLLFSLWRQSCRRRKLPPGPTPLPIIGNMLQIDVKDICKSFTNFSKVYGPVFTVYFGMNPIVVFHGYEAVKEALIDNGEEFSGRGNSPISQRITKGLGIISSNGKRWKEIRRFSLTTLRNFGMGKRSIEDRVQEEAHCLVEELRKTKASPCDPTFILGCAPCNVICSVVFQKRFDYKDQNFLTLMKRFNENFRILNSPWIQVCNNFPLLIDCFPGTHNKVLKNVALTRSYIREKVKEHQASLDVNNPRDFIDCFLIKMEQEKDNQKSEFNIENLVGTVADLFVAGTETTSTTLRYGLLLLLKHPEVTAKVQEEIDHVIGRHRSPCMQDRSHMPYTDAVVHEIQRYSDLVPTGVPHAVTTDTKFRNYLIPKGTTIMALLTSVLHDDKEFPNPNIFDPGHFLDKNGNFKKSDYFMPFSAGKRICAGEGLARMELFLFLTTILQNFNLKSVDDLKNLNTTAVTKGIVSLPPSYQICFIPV
Procedure: (§1) An assessment of the time-dependent Inhibitory Potential of the test compounds against Principal Human Cytochrome P450 Isozymes using Human Liver Microsomes was also carried out using standard methods (Grimm et al, Drug Metab. Dispos., July; 37(7):1355-70. doi: 10.1124/dmd.109.026716, 2009). Pooled human microsomes and selective CYP probe substrates were used for in vitro assessment of test compounds at 25 and 50 μM as time-dependent inhibitors of […] human hepatic cytochrome P450 isozymes (CYP1A2, 2B6, 2C9, 2C19, 2D6, and 3A4). LC-MS/MS was used to quantify metabolite formation. The inhibition of each P450 enzyme in human liver microsomes was measured as the percentage decrease in the activity of marker metabolite formation as measured by LC-MS/MS compared to non-inhibited controls (=100% activity) at time zero and after 30 minutes incubation. The occurrence of any time dependent inhibition was then expressed as the fold change in enzyme activity at time zero relative to the activity after 30 minutes incubation.

[2] = target: T2, CYP3A4 (Homo sapiens, UniProt P08684); test: Time-dependent inhibition of CYP3A4 in human liver microsomes (testosterone and midazolam probes); assay type: in vitro ADME; conditions: for (% Activity NADPH T0)/(% Activity NADPH T30): fold change; for activity at 30 min, 25 µM / activity at 30 min, 50 µM: human, after 30 minutes incubation, read-out: % Activity NADPH T30; for activity at 30 min, 25 µM / activity at 30 min, 50 µM / activity at 0 min, 25 µM / activity at 0 min, 50 µM: pooled human liver microsomes; for activity at 0 min, 25 µM / activity at 0 min, 50 µM: human liver microsomes, time zero, read-out: % Activity NADPH T0
T2 construct: Pooled human microsomes and selective CYP probe substrates were used; from tissue; host or cells: pooled human liver microsomes
T2 sequence (P08684 whole entry): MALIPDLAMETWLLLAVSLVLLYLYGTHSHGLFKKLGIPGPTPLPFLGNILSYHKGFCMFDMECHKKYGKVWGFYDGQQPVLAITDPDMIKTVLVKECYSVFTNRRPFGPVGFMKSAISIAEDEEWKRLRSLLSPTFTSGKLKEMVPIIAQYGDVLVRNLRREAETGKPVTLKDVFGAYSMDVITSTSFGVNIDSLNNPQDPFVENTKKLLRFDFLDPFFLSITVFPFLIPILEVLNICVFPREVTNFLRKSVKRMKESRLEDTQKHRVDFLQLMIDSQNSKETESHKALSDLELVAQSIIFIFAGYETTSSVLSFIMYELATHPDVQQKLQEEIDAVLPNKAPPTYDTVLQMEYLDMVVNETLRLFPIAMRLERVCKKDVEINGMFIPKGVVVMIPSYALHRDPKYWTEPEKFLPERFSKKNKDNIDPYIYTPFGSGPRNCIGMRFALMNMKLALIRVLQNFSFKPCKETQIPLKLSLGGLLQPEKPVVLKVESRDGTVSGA
Procedure: as §1

[3] = Projected single-dose CL and Vss values in humans (allometric scaling of mouse, rat, dog, monkey IV PK); conditions: human, projected by allometric scaling from single-dose IV PK
Procedure: Allometric scaling for the prediction of human Clearance and Volume of Distribution was based on interspecies simple allometric scaling of mouse, rat, dog, and cynomolgus monkey intravenous pharmacokinetic parameters (Boxenbaum, J Pharmacokinet Biopharm 10:201-27, 1982). Prediction of human CL was performed by extrapolating pre-clinical species' plasma intravenous clearance. The ‘rule of exponents’ (Mahmood & Balian, Life Sci 59:579-85, 1996) was examined in this prediction, where it has been proposed that, when the exponent of simple allometry lies between […] and 0.99, a correction factor based on Maximum Life Span (MLP) of this species can be applied and, when the exponent of simple allometry is greater than 1.0, a correction factor based on Brain Weight (BrW) can be applied, or a protein binding correction can be applied when available. In a similar manner, simple allometric scaling was employed to predict human Volume of Distribution. This method has been used successfully for varied drugs (Ward & Smith, Drug Metab Dispos 32:612-19, 2004; McGinnity et al., Curr Drug Metab 8:463-79, 2007).

[4] = CYP3A4-M (midazolam probe substrate), 25 μM
[5] = CYP3A4-M (midazolam probe substrate), 50 μM
[6] = CYP3A4-T (testosterone probe substrate), 25 μM
[7] = CYP3A4-T (testosterone probe substrate), 50 μM

(% Activity NADPH T0)/(% Activity NADPH T30) ([1]; CYP2C8, 25 μM)	(% Activity NADPH T0)/(% Activity NADPH T30) ([1]; CYP2C8, 50 μM)	activity at 30 min, 25 µM ([1]; CYP2C8, 25 μM) [%]	activity at 0 min, 25 µM ([1]; CYP2C8, 25 μM) [%]	activity at 30 min, 50 µM ([1]; CYP2C8, 50 μM) [%]	activity at 0 min, 50 µM ([1]; CYP2C8, 50 μM) [%]	(% Activity NADPH T0)/(% Activity NADPH T30) [2, 4]	(% Activity NADPH T0)/(% Activity NADPH T30) [2, 5]	(% Activity NADPH T0)/(% Activity NADPH T30) [2, 6]	(% Activity NADPH T0)/(% Activity NADPH T30) [2, 7]	activity at 30 min, 25 µM [2, 4] [%]	activity at 30 min, 50 µM [2, 5] [%]	activity at 30 min, 25 µM [2, 6] [%]	activity at 30 min, 50 µM [2, 7] [%]	activity at 0 min, 25 µM [2, 4] [%]	activity at 0 min, 50 µM [2, 5] [%]	activity at 0 min, 25 µM [2, 6] [%]	activity at 0 min, 50 µM [2, 7] [%]	Projected CL [3] [mL/min/kg]	Projected Vss [3] [L/kg]	SMILES	further results
1.0	1.0	117	117	112	110	1.0	1.0	1.0	1.0	100	100	100	100	100	100	100	100	–	–	CC(C)N1CC(=O)N(Cc2ccc(Cl)c(F)c2)C2(CN(c3cccnn3)C2)C1=O [Compound 8, 5-(4-chloro-3-fluorobenzyl)-8-isopropyl-2-(pyridazin-3-yl)-2,5,8-triazaspiro[3.5]nonane-6,9-dione]	–
1.0	2.0	88	87	53	104	1.1	1.9	1.1	1.4	69	35	87	68	75	67	100	98	–	–	C[C@H]1CC[C@H](N2CC(=O)N(Cc3ccc(F)c(F)c3)C3(CN(C(N)=O)C3)C2=O)CC1 [Compound 5, 5-(3,4-difluorobenzyl)-8-((1r,4r)-4-methylcyclohexyl)-6,9-dioxo-2,5,8-triazaspiro[3.5]nonane-2-carboxamide]	–
0.9	1.1	88	79	80	86	1.0	0.8	1.3	1.4	89	86	76	63	89	72	95	89	–	–	Cc1cc(CN2C(=O)CN([C@H]3CC[C@H](C)CC3)C(=O)C23CN(C(N)=O)C3)ccc1F [Compound 6, 5-(4-fluoro-3-methylbenzyl)-8-((1r,4r)-4-methylcyclohexyl)-6,9-dioxo-2,5,8-triazaspiro[3.5]nonane-2-carboxamide]	–
1.2	1.0	98	116	106	106	1.0	0.7	1.0	0.9	88	97	77	65	87	72	74	56	4.66	3.43	CC(C)N1CC(=O)N(Cc2ccc(C(F)(F)F)cc2)C2(CN(c3cccnn3)C2)C1=O [Compound 13, 8-isopropyl-2-(pyridazin-3-yl)-5-(4-(trifluoromethyl)benzyl)-2,5,8-triazaspiro[3.5]nonane-6,9-dione]	Projected t½ [3]: 8.51 h
1.1	1.1	64	72	103	109	1.0	1.0	1.0	1.0	100	100	100	100	100	100	100	100	–	–	C[C@H]1CC[C@H](N2CC(=O)N(Cc3ccc(F)c(Cl)c3)C3(CN(C(N)=O)C3)C2=O)CC1 [Compound 7, 5-(3-chloro-4-fluorobenzyl)-8-((1r,4r)-4-methylcyclohexyl)-6,9-dioxo-2,5,8-triazaspiro[3.5]nonane-2-carboxamide]	–
0.7	1.3	100	65	76	100	1.8	1.2	1.2	1.1	71	102	85	75	125	126	100	85	3.3	7.1	C[C@H]1CC[C@H](N2CC(=O)N(Cc3ccc(Cl)cc3)C3(CN(C(N)=O)C3)C2=O)CC1 [Compound 18, 5-(4-chlorobenzyl)-8-((1r,4r)-4-methylcyclohexyl)-6,9-dioxo-2,5,8-triazaspiro[3.5]nonane-2-carboxamide]	Projected t½ [3]: 25 h
1.0	1.2	–	–	–	–	0.8	0.7	0.9	0.8	–	–	–	–	–	–	–	–	1.84	4.51	C[C@H]1CC[C@H](N2CC(=O)N(Cc3ccc(F)c(F)c3)C3(CN(C=O)C3)C2=O)CC1 [Compound 4, 5-(3,4-difluorobenzyl)-8-((1r,4r)-4-methylcyclohexyl)-6,9-dioxo-2,5,8-triazaspiro[3.5]nonane-2-carbaldehyde]	Projected t½ [3]: 28.3 h
